Source: patent US20230339952A1, “MACROCYCLIC HETEROCYCLES AND USES THEREOF” (Kumquat Biosciences Inc., priority 2022, published 2023)

Legend:
SOS1 = SOS1 (Homo sapiens (Human), UniProt Q07889); assay: Ras-SOS interaction assay (HTRF), K-Ras G13D utilized; assay type: binding; conditions: K-Ras G13D, read-out: SOS1 IC50
[1] = test system: NCI-H1975 (ATCC CRL-5908) cell line comprising an EGFR T790M L858R double mutation; assay: EGFR-SOS cellular inhibition assay (CellTiter-Glo cell proliferation); assay type: cell-based; conditions: Homo sapiens, 120 h; NCI-H1975 cell proliferation, approximately 5 days; read-out: H1975 IC50
Description: A CellTiter-Glo (CTG) luminescent based assay (Promega) is used to assess growth of the cells, as a measurement of the ability of the compounds herein to inhibit EGFR signaling in the cells. […] The day after plating, cells are treated with a dilution series (e.g., a 9 point 3-fold dilution series) of the compounds herein (e.g., approximately 125 μL final volume per well).

SOS1, sequence (Q07889 564-1049): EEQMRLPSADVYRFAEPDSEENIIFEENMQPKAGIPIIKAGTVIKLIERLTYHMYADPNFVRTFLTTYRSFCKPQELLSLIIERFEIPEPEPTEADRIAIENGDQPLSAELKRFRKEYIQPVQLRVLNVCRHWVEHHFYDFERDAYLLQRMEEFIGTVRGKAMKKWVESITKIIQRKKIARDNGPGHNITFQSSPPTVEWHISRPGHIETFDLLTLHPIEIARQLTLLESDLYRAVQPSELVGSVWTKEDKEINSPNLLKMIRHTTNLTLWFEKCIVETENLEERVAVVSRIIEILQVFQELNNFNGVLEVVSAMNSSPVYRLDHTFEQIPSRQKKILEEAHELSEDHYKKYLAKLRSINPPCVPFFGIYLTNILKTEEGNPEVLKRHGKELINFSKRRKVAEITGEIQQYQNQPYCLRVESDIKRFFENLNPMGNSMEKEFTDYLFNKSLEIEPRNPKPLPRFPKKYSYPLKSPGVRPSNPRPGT

SMILES	IC50 (SOS1) [nM]	IC50 [1] [nM]
C[C@H]1Nc2ncnc3c2cc(C2CCS(=O)(=O)CC2)c(=O)n3CCCCCCCN2C3CCC2CC(C3)C(F)(F)c2cccc1c2F [Compound 113, (11S,15R,4R)-6^6-(1,1-dioxidotetrahydro-2H-thiopyran-4-yl)-32,2,2-trifluoro-4-methyl-6^7,6^8-dihydro-1^8,5-diaza-6(4,8)-pyrido[2,3-d]pyrimidina-1(3,8)-bicyclo[3.2.1]octana-3(1,3)-benzenacyclotridecaphan-6^7-one]	< 100	< 1000
C[C@H]1Nc2ncnc3c2cc(C2(C#N)CC2)c(=O)n3CCCn2cc(nn2)CN2CCC(CC2)C(F)(F)c2cccc1c2 [Compound 95, 1-((6R,Z)-4,4-difluoro-6-methyl-8^7-oxo-8^7,8^8-dihydro-11H-7-aza-8(4,8)-pyrido[2,3-d]pyrimidina-3(1,4)-piperidina-1(4,1)-triazola-5(1,3)-benzenacycloundecaphane-8^6-yl)cyclopropane-1-carbonitrile]	< 100	< 1000
CC1C/C=C\CCCN2CCC(CC2)C(F)(F)c2cccc(c2F)[C@@H](C)Nc2ncnc3c2cc(C2(C#N)CC2)c(=O)n31 (stereo partly drawn) [Compound 97, 1-((4R,Z)-3^2,2,2-trifluoro-4,7-dimethyl-6^7-oxo-6^7,6^8-dihydro-5-aza-6(4,8)-pyrido[2,3-d]pyrimidina-1(4,1)-piperidina-3(1,3)-benzenacyclotridecaphan-9-en-6^6-yl)cyclopropane-1-carbonitrile]	< 100	< 1000
C[C@H]1Nc2ncnc3c2cc(C2(C#N)CCS(=O)(=O)CC2)c(=O)n3CCCCCCN2CCC(CC2)CC(F)(F)c2cccc1c2F [Compound 23, 4-((3R)-4^2,5,5-trifluoro-3-methyl-1^7-oxo-1^7,1^8-dihydro-2-aza-1(4,8)-pyrido[2,3-d]pyrimidina-7(4,1)-piperidina-4(1,3)-benzenacyclotridecaphane-1^6-yl)tetrahydro-2H-thiopyran-4-carbonitrile 1,1-dioxide]	< 100	< 1000
C[C@H]1Nc2ncnc3c2cc(C2CCS(=O)(=O)CC2)c(=O)n3CCCNC(=O)CCN2CCC(CC2)C(F)(F)c2cccc1c2 [Compound 91, (4R)-6^6-(1,1-dioxidotetrahydro-2H-thiopyran-4-yl)-2,2-difluoro-4-methyl-6^7,6^8-dihydro-5,10-diaza-6(4,8)-pyrido[2,3-d]pyrimidina-1(4,1)-piperidina-3(1,3)-benzenacyclotridecaphane-6^7,11-dione]	< 100	< 1000

The remaining lines, values ahead:

IC50 (SOS1) [nM]	IC50 [1] [nM]	SMILES
< 100	< 1000	COc1nnc2c3cc(C4CCS(=O)(=O)CC4)c(nc13)OCCCCCCCN1CCC(CC1)C(F)(F)c1cccc(c1F)[C@@H](C)N2 [Compound 177, (R)-4-(3^2,2,2-trifluoro-6^8-methoxy-4-methyl-7-oxa-5-aza-6(5,2)-pyrido[2,3-d]pyridazina-1(4,1)-piperidina-3(1,3)-benzenacyclotetradecaphane-6^3-yl)tetrahydro-2H-thiopyran 1,1-dioxide]
< 100	< 1000	C[C@H]1Nc2ncnc3c2cc(C2(C#N)CCS(=O)(=O)CC2)c(=O)n3CCCOCCCCN2CCC(CC2)C(F)(F)c2cccc1c2 [Compound 127, 4-((4R)-2,2-difluoro-4-methyl-6^7-oxo-6^7,6^8-dihydro-10-oxa-5-aza-6(4,8)-pyrido[2,3-d]pyrimidina-1(4,1)-piperidina-3(1,3)-benzenacyclotetradecaphane-6^6-yl)tetrahydro-2H-thiopyran-4-carbonitrile 1,1-dioxide]
< 100	< 1000	C[C@H]1Nc2ncnc3c2cc(C2CCS(=O)(=O)CC2)c(=O)n3CCCCCCCN2CC(C2)CC(F)(F)c2cccc1c2 [Compound 161, (3R)-1^6-(1,1-dioxidotetrahydro-2H-thiopyran-4-yl)-5,5-difluoro-3-methyl-1^7,1^8-dihydro-2-aza-1(4,8)-pyrido[2,3-d]pyrimidina-7(3,1)-azetidina-4(1,3)-benzenacyclotetradecaphan-1^7-one]
